Several values for one entry are separate records, joined by “and”; a condition that tells them apart may be missing. Equal entries are not always repeated.

Four compounds from US20140348819A1, “Methods of Treating Cancer” (Dana-Farber Cancer Institute, Inc., priority 2011, published 2014) can be followed below.

Assay [1] has as its system BRAF V600E melanoma patients. The experiment in a line: Clinical response of BRAF V600E melanoma patients to BRAFi or BRAFi + MEKi (Table 7). The class given is in vivo, human. The settings on record: one line per patient.
The subject of a further assay is DLD-1 cells. The experiment in a line: Crizotinib synergistic effect with BRAFi in colorectal cells (FIG. 9). The class given is cell-based, human. The source says:
The DLD-1 cells do harbor the BRAF activating mutation V600E but are not sensitive at all to BRAF inhibition. They actually grow faster under BRAFi.

The subject of assay [2] is V600E BRAF melanoma cell lines. The experiment in a line: HGF-induced / stromal resistance of melanoma cell lines to BRAF, MEK and AKT inhibitors and its reversal. The following applies: V600E BRAF melanoma cell lines with recombinant HGF. Type of assay: cell-based, human.
The subject of a further assay is pERK/pAKT. The experiment in a line: High-throughput western analysis of pERK/pAKT re-activation by RTK ligands under BRAFi/MEKi. The class given is cell-based, human. The settings on record: under BRAFi (PLX4720); after 1 hour of cytokine treatment; six V600E BRAF melanoma cell lines. As for the experimental part: FIG. 23B is a western blot showing the activation of AKT (phosphorylated AKT, S473) after 1 hour and 24 hours after treatment with HGF, IGF-1 (IGF), and Insulin (INS) in the presence of BRAFi (PLX4720, 2 μM). FIG. 23C is a western blot showing the effect of HGF (25 ng/mL) on MAPK and PI3K/AKT pathway activation (pRAF1, pMEK, pERK, pAKT and pMET) in melanoma cell lines after 24 hours of treatment with 2 μM BRAFi (PLX4720) or 2 μM MEKi (PD184352).
To understand why, of all the RTKs tested, only HGF could induce such a unique primary resistance phenotype, a high-throughput western analysis was used to test the ability of all 22 RTK ligands to re-activate pERK/pAKT under BRAFi (PLX4720) treatment in six V600E BRAF melanoma cell lines. […] However, whereas the activation of both ERK and AKT by HGF under PLX4720 treatment was long lasting, the activation of either ERK or AKT by the above cytokines was only transient and thus could not confer resistance to the melanoma cell lines.

The subject of assay [3] is six V600E BRAF melanoma cell lines. The experiment in a line: Screening of recombinant RTK ligands for ability to confer resistance to BRAFi (PLX4720) or MEKi (PD184352) (Table 4). The class given is cell-based, human. The arrangement: ability of recombinant RTK ligand to confer resistance / ability of recombinant RTK ligand to confer resistance (screening value): scale not given here. Put shortly: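 Resistance to BRAFi (PLX4720) or MEKi (PD184352) was tested in six V600E BRAF melanoma lines given one of 22 recombinant RTK ligands. For a subset of RTKs, activation was checked by high-throughput tyrosine kinase phosphorylation profiling and western blot.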

Regarding `CCCS(=O)(=O)Nc1ccc(F)c(C(=O)c2c[nH]c3ncc(-c4ccc(Cl)cc4)cc23)c1F` [Vemurafenib], in assay [1], the “Response (Max)” value is 90% and 72% (2×) and 50% and 100% and 25% and 23% and 22% and 10% and 0% (4×) and 54% and 34% and 20% and 56% and 27%; the “Response (Max), category” value is listed as “POD”; the “Time to progression (months)” value was 7 months and 3.2 months and 5 months (2×) and 3 months and 12.4 months and 8 months and 5.4 months and 4.5 months and 8.5 months and 6.0 months and 7.3 months and 3.5 months and 6.5 months and 1.3 months.

In the case of `C[C@@H](Oc1cc(-c2cnn(C3CCNCC3)c2)cnc1N)c1c(Cl)ccc(F)c1Cl` [Crizotinib], the “synergistic effect of Crizotinib” value in the assay on DLD-1 cells (DLD-1 cells, FIG. 9B) is reported as “no substantial synergistic effect”. In the assay with DLD-1 cells (cell line printed as DLD-1, BRAF V600E), the “sensitivity of colorectal cancer cell line to BRAFi on addition of Crizotinib” value is recorded as “restores full sensitivity”. In assay [2], the “reversal of HGF-conferred BRAF/MEK inhibitor resistance” value is given as “directly reversed”.

In the case of EGF: RTK ligand (EGFR), cytokine tested, the “re-activation of pERK/pAKT” value with pERK/pAKT is “reactivate only ERK”. The “ability of recombinant RTK ligand to confer resistance” value (“ability of recombinant RTK ligand” for short) in assay [3] (A2058, PD184352 - 1 uM, ligand 0.4 ng/ml) stood at 1.05; in assay [3] (A2058, PD184352 - 1 uM, ligand 1.6 ng/ml), 1.04; in assay [3] (A2058, PD184352 - 1 uM, ligand 6.25 ng/ml), 0.95; in assay [3] (A2058, PD184352 - 1 uM, ligand 25 ng/ml) it was 0.96; in assay [3] (A2058, PD184352 - 1 uM, ligand 100 ng/ml) it was 1.00; in assay [3] (A2058, PLX4720 - 2 uM, ligand 0.4 ng/ml), 1.02. Further, the “ability of recombinant RTK ligand” value was found to be 1.03 in assay [3] (A2058, PLX4720 - 2 uM, ligand 1.6 ng/ml); 0.93 in assay [3] (A2058, PLX4720 - 2 uM, ligand 6.25 ng/ml); 0.97 in assay [3] (A2058, PLX4720 - 2 uM, ligand 25 ng/ml); 0.99 in assay [3] (A2058, PLX4720 - 2 uM, ligand 100 ng/ml); 1.01 in assay [3] (C32, PD184352 - 1 uM, ligand 0.4 ng/ml); 0.97 in assay [3] (C32, PD184352 - 1 uM, ligand 1.6 ng/ml). For the same compound, the “ability of recombinant RTK ligand” value in assay [3] (C32, PD184352 - 1 uM, ligand 6.25 ng/ml) is listed as 1.06; in assay [3] (C32, PD184352 - 1 uM, ligand 25 ng/ml), 1.01; in assay [3] (C32, PD184352 - 1 uM, ligand 100 ng/ml), 0.99; in assay [3] (C32, PLX4720 - 2 uM, ligand 0.4 ng/ml), 1.06; in assay [3] (C32, PLX4720 - 2 uM, ligand 1.6 ng/ml), 0.94; in assay [3] (C32, PLX4720 - 2 uM, ligand 6.25 ng/ml), 1.03. The “ability of recombinant RTK ligand” value in assay [3] (C32, PLX4720 - 2 uM, ligand 25 ng/ml) was determined as 0.93; in assay [3] (C32, PLX4720 - 2 uM, ligand 100 ng/ml), 0.99; in assay [3] (Colo 829, PD184352 - 1 uM, ligand 0.4 ng/ml), 0.97; in assay [3] (Colo 829, PD184352 - 1 uM, ligand 1.6 ng/ml), 0.96; in assay [3] (Colo 829, PD184352 - 1 uM, ligand 6.25 ng/ml), 0.99; in assay [3] (Colo 829, PD184352 - 1 uM, ligand 25 ng/ml), 0.94. Also, the “ability of recombinant RTK ligand” value in assay [3] (Colo 829, PD184352 - 1 uM, ligand 100 ng/ml) was 1.00; in assay [3] (Colo 829, PLX4720 - 2 uM, ligand 0.4 ng/ml) it was 1.02; in assay [3] (Colo 829, PLX4720 - 2 uM, ligand 1.6 ng/ml), 1.00; in assay [3] (Colo 829, PLX4720 - 2 uM, ligand 6.25 ng/ml), 1.00; in assay [3] (Colo 829, PLX4720 - 2 uM, ligand 25 ng/ml), 0.97; in assay [3] (Colo 829, PLX4720 - 2 uM, ligand 100 ng/ml) it was 1.01. The “ability of recombinant RTK ligand” value in assay [3] (G-361, PD184352 - 1 uM, ligand 0.4 ng/ml) was determined as 1.01; in assay [3] (G-361, PD184352 - 1 uM, ligand 1.6 ng/ml) it was 0.90; in assay [3] (G-361, PD184352 - 1 uM, ligand 6.25 ng/ml) it was 0.97; in assay [3] (G-361, PD184352 - 1 uM, ligand 25 ng/ml), 1.00; in assay [3] (G-361, PD184352 - 1 uM, ligand 100 ng/ml), 0.96; in assay [3] (G-361, PLX4720 - 2 uM, ligand 0.4 ng/ml), 0.98. For the same compound, the “ability of recombinant RTK ligand” value in assay [3] (G-361, PLX4720 - 2 uM, ligand 1.6 ng/ml) turned out to be 0.90; in assay [3] (G-361, PLX4720 - 2 uM, ligand 6.25 ng/ml) it was 0.94; in assay [3] (G-361, PLX4720 - 2 uM, ligand 25 ng/ml), 0.99; in assay [3] (G-361, PLX4720 - 2 uM, ligand 100 ng/ml), 0.93; in assay [3] (SK-MEL-5, PD184352 - 1 uM, ligand 0.4 ng/ml), 0.99; in assay [3] (SK-MEL-5, PD184352 - 1 uM, ligand 1.6 ng/ml) it was 1.04. Also, the “ability of recombinant RTK ligand” value in assay [3] (SK-MEL-5, PD184352 - 1 uM, ligand 6.25 ng/ml) worked out at 1.08; in assay [3] (SK-MEL-5, PD184352 - 1 uM, ligand 25 ng/ml), 1.11; in assay [3] (SK-MEL-5, PD184352 - 1 uM, ligand 100 ng/ml), 1.01; in assay [3] (SK-MEL-5, PLX4720 - 2 uM, ligand 0.4 ng/ml), 1.08; in assay [3] (SK-MEL-5, PLX4720 - 2 uM, ligand 1.6 ng/ml) it was 1.15; in assay [3] (SK-MEL-5, PLX4720 - 2 uM, ligand 6.25 ng/ml), 1.19. Also, the “ability of recombinant RTK ligand” value in assay [3] (SK-MEL-5, PLX4720 - 2 uM, ligand 25 ng/ml) amounted to 1.22; in assay [3] (SK-MEL-5, PLX4720 - 2 uM, ligand 100 ng/ml) it was 1.11; in assay [3] (SK-MEL-28, PD184352 - 1 uM, ligand 0.4 ng/ml), 1.03; in assay [3] (SK-MEL-28, PD184352 - 1 uM, ligand 1.6 ng/ml) it was 0.97; in assay [3] (SK-MEL-28, PD184352 - 1 uM, ligand 6.25 ng/ml), 0.93; in assay [3] (SK-MEL-28, PD184352 - 1 uM, ligand 25 ng/ml), 0.97. Moreover, the “ability of recombinant RTK ligand” value was 1.05 in assay [3] (SK-MEL-28, PD184352 - 1 uM, ligand 100 ng/ml); 1.00 in assay [3] (SK-MEL-28, PLX4720 - 2 uM, ligand 0.4 ng/ml); 1.01 in assay [3] (SK-MEL-28, PLX4720 - 2 uM, ligand 1.6 ng/ml); 0.97 in assay [3] (SK-MEL-28, PLX4720 - 2 uM, ligand 6.25 ng/ml); 0.94 in assay [3] (SK-MEL-28, PLX4720 - 2 uM, ligand 25 ng/ml); 1.03 in assay [3] (SK-MEL-28, PLX4720 - 2 uM, ligand 100 ng/ml).

Consider `CC(C)(C)c1nc(-c2cccc(NS(=O)(=O)c3c(F)cccc3F)c2F)c(-c2ccnc(N)n2)s1` [GSK2118436], for which, in assay [1], the “Response (Max)” value was 9% and 40%; the “Time to progression (months)” value is 3.5 months and 2.5 months.
